According to ChEMBL document CHEMBL1697781, “Assessment of the health effects of chemicals in humans: II. Construction of an adverse effects database for QSAR modeling” (Curr Drug Discov Technol, 2004):

Columns and labels:
Settings in all cases: human; call rule not given here
[1] = system: Hepatotoxicity; experiment: FDA HLAED, gamma-glutamyl transferase (GGT) increase
[2] = system: Hepatotoxicity; experiment: FDA HLAED, serum glutamic oxaloacetic transaminase (SGOT) increase
[3] = system: Hepatotoxicity; experiment: FDA HLAED, liver enzyme composite activity
[4] = system: Hepatotoxicity; experiment: FDA HLAED, lactate dehydrogenase (LDH) increase
[5] = system: Hepatotoxicity; experiment: FDA HLAED, alkaline phosphatase increase
[6] = system: Hepatotoxicity; experiment: FDA HLAED, serum glutamic pyruvic transaminase (SGPT) increase
Wherever GGT Increase - Index Value is given: reference of the scale not given here.
Wherever LDH Increase - Index Value is given: reference of the scale not given here.

Row | Structure (SMILES) | GGT Increase - Activity Score [1] | GGT Increase - Index Value [1] | GGT Increase - Number of Reports [1] | SGOT Increase - Activity Score [2] | SGOT Increase - Index Value [2] | SGOT Increase - Number of Reports [2] | Composite Activity - Active [3] | Composite Activity - Marginal [3] | Composite Activity - Score [3] | LDH Increase - Activity Score [4] | LDH Increase - Index Value [4] | LDH Increase - Number of Reports [4] | Alkaline Phosphatase Increase - Activity Score [5] | Alkaline Phosphatase Increase - Index Value [5] | Alkaline Phosphatase Increase - Number of Reports [5] | SGPT Increase - Activity Score [6] | SGPT Increase - Index Value [6] | SGPT Increase - Number of Reports [6]
1 | CC[C@H]1OC(=O)[C@H](C)[C@@H](O[C@H]2C[C@@](C)(OC)[C@@H](O)[C@H](C)O2)[C@H](C)[C@@H](O[C@@H]2O[C@H](C)C[C@H](N(C)C)[C@H]2O)[C@](C)(O)C[C@@H](C)[C@@H]2N[C@@H](COCCOC)O[C@H]([C@H]2C)[C@]1(C)O [DIRITHROMYCIN] | Inactive | 2.7 | < 4 | Inactive | 5.4 | < 4 | 0 | 0 | Inactive | Inactive | 0 | < 4 | Inactive | 0 | < 4 | Inactive | 5.4 | < 4
2 | CC(CCc1ccc(O)cc1)NCCc1ccc(O)c(O)c1 (stereo unspecified) [DOBUTAMINE] | Inactive | 0 | < 4 | Inactive | 0 | < 4 | 0 | 0 | Inactive | Inactive | 0 | < 4 | Inactive | 0 | < 4 | Inactive | 0 | < 4
3 | CC(=O)O[C@@]12CO[C@@H]1C[C@H](O)[C@@]1(C)C(=O)[C@H](O)C3=C(C)[C@@H](OC(=O)[C@H](O)[C@@H](NC(=O)OC(C)(C)C)c4ccccc4)C[C@@](O)([C@@H](OC(=O)c4ccccc4)[C@H]21)C3(C)C.O.O.O [DOCETAXEL] | Inactive |  | < 4 | Inactive |  | < 4 | 0 | 0 | Inactive | Inactive |  | < 4 | Inactive |  | < 4 | Inactive |  | < 4
4 | CCN[C@H]1C[C@H](C)S(=O)(=O)c2sc(S(N)(=O)=O)cc21 [DORZOLAMIDE] | Inactive | 0 | < 4 | Inactive | 0.2 | < 4 | 0 | 0 | Inactive | Inactive | 0.1 | < 4 | Inactive | 0 | < 4 | Inactive | 0.1 | < 4
5 | COc1cc(CC2c3c(cc(OC)c(OC)c3OC)CC[N+]2(C)CCCOC(=O)CCC(=O)OCCC[N+]2(C)CCc3cc(OC)c(OC)c(OC)c3C2Cc2cc(OC)c(OC)c(OC)c2)cc(OC)c1OC.[Cl-].[Cl-] (stereo unspecified) [DOXACURIUM CHLORIDE] | Inactive | 0 | < 4 | Inactive | 0 | < 4 | 0 | 0 | Inactive | Inactive | 0 | < 4 | Inactive | 0 | < 4 | Inactive | 0 | < 4
6 | COc1cc2nc(N3CCN(C(=O)C4COc5ccccc5O4)CC3)nc(N)c2cc1OC (stereo unspecified) [DOXAZOSIN] | Inactive | 0.2 | < 4 | Inactive | 0.3 | < 4 | 0 | 0 | Inactive | Inactive | 0.2 | < 4 | Inactive | 0.2 | < 4 | Inactive | 0.5 | >= 4
7 | CCCCCc1cc(O)c2c(c1)OC(C)(C)[C@@H]1CCC(C)=C[C@@H]21 [DRONABINOL] | Inactive | 0 | < 4 | Inactive | 0 | < 4 | 0 | 0 | Inactive | Inactive | 0 | < 4 | Inactive | 0 | < 4 | Inactive | 0 | < 4
8 | Clc1ccc(COC(Cn2ccnc2)c2ccc(Cl)cc2Cl)cc1 (stereo unspecified) [ECONAZOLE] | Inactive | 0 | < 4 | Inactive | 0 | < 4 | 0 | 0 | Inactive | Inactive | 0 | < 4 | Inactive | 0 | < 4 | Inactive | 0 | < 4
9 | COc1ccc(C(=O)Nc2ccccc2CCC2CCCCN2C)cc1 (stereo unspecified) [ENCAINIDE] | Inactive | 0 | < 4 | Active | 12.4 | >= 4 | 3 | 1 | Active | Active | 4.1 | >= 4 | Marginally Active | 3.6 | >= 4 | Active | 7.7 | >= 4
10 | CCn1cc(C(=O)O)c(=O)c2cc(F)c(N3CCNCC3)nc21 [ENOXACIN] | Inactive | 0 | < 4 | Inactive | 0 | < 4 | 0 | 0 | Inactive | Inactive | 0 | < 4 | Inactive | 0 | < 4 | Inactive | 0 | < 4
11 | CCCCC[C@H](O)/C=C/[C@@H]1[C@H]2C/C(=C/CCCC(=O)O)O[C@H]2C[C@H]1O [EPOPROSTENOL] | Inactive | 0 | < 4 | Inactive | 0 | < 4 | 0 | 0 | Inactive | Inactive | 0 | < 4 | Inactive | 0 | < 4 | Inactive | 0 | < 4
12 | COC(=O)CCc1ccc(OCC(O)CNC(C)C)cc1 (stereo unspecified) [ESMOLOL] | Inactive | 0 | < 4 | Inactive | 4.6 | < 4 | 0 | 0 | Inactive | Inactive | 4.6 | < 4 | Inactive | 0 | < 4 | Inactive | 0 | < 4
